Test [1] concerns rat liver cell line where LAT1 was highly expressed. The test is described as follows: Cell proliferation of cultured rat liver cell line, Cell Counting Kit-8. In kind it is cell-based. Particulars: 20 mM added to William's medium, incubation for 48 hours. The procedure: A rat liver cell line where LAT1 was highly expressed was incubated on a William's medium, 20 mM of D-leucine or BCH which suppressed the incorporation mediated by LAT1 were added to the medium and, by means of an incubation for 48 hours, cell numbers were investigated using a Cell Counting Kit-8 (manufactured by Dojindo Laboratories). The cell numbers were measured as an absorption at 450 nm (O.D. 450).

The subject of test [2] is T24 cells derived from human bladder cancer. The test is described as follows: Inhibition of 14C-leucine incorporation by T24 cells by amino acids and similar substances. In kind it is cell-based. Conditions: 14C-leucine 20 μM, 2 mM unlabeled compound.
Test [3] shares this test system. In words: Inhibiting mode of leucine incorporation by T24 cells by BCH, double reciprocal plots. Type of test: cell-based. On the procedure: T24 cells derived from human bladder cancer were incubated and maintained in an Eagle's minimal essential medium containing 10% of fetal bovine serum. A test for the incorporation of amino acids into T24 cells was carried out by incubating the T24 cells on a 24-well plate and finished when the state became confluent. The amino acid incorporation test was started by removing the incubating solution and adding a Dulbecco's PBS (manufactured by Gibco) containing ^14C-amino acid and finished by removing it, cooling with ice and washing with a Dulbecco's PBS. After washing, the above was dissolved in 0.1N NaOH and the radioactivity was measured by a liquid scintillation counter.
Dependency of the ^14C-leucine incorporation by T24 cells on the concentration was measured in the absence of BCH, in the presence of 50 μM of BCH and in the presence of 100 μM of BCH and the inhibiting mode was investigated by means of double reciprocal plots.

The test system is the same in test [4]. The test is described as follows: Proliferation of T24 cells with or without BCH. Type of test: cell-based. Conditions: 20 mM of BCH, 5 days, cell numbers counted. On the procedure: (§1) T24 cells derived from human bladder cancer were incubated and maintained in an Eagle's minimal essential medium containing 10% of fetal bovine serum. Human Daudi cells were incubated and maintained in an RPMI medium containing 20% of fetal bovine serum. T24 cells or Daudil cells were incubated in a 24-well plate (800 cells/well) for 5 days in a medium with or without 20 mM of BCH and the cell numbers were counted.

Test [5] concerns Human Daudi cells. In words: Proliferation of Daudi cells with or without BCH. In kind it is cell-based. Particulars: 20 mM of BCH, 5 days, cell numbers counted. On the procedure: as §1
The subject of test [6] is CCRF-SB cells. The test is described as follows: Proliferation of CCRF-SB cells, effect of BCH. Conditions: expression of 4F2hc not detected. In kind it is cell-based, human.
Test [7] has as its system P30/OHK cells. In words: Proliferation of P30/OHK cells, effect of BCH. In kind it is cell-based, human. Particulars: expression of 4F2hc not detected.
Test [8] has as its system cells where both LAT1 and 4F2hc were strongly expressed. The test is described as follows: Proliferation of cells where both LAT1 and 4F2hc were strongly expressed, effect of BCH. In kind it is cell-based, human. The procedure:
as §1

Test [9] has as its system Mouse sarcoma 180 cells. The test is described as follows: Survival of ICR mouse after intraperitoneal transplantation of mouse sarcoma 180 cells. Particulars: male ICR mouse, sarcoma 180 cells intraperitoneally transplanted, 300 mg/kg for ten days, observation for 19 days. Type of test: in vivo. The procedure: Mouse sarcoma 180 cells were intraperitoneally transplanted (1×10^6) to male ICR mouse and, from the next day of the transplantation, BCH which was a inhibitor for the amino acid transporter, D-Leu having a inhibiting effect on amino acid transporter and D-Ala having no inhibiting action thereon were administered at the dose of 300 mg/kg for ten days. After the transplantation, it was confirmed every day whether the mouse was dead or alive.

Test [10] deals with T1, human amino acid transporter LAT1 (Homo sapiens, UniProt Q01650). In words: Competitive antagonism test: incorporation of 14C-labeled leucine or phenylalanine into oocytes co-expressing human LAT1 and human 4F2hc in the presence of test substance. Also noted: expressed in transfected cells. Conditions: 14C-labeled leucine 20 μM, test substance 2 mM, 30 minutes, choline chloride uptake solution. In kind it is cell-based.

Test [11] has as its target T1, human amino acid transporter LAT1. The test is described as follows: Incorporation of 14C-labeled amino acids into oocytes co-expressing human LAT1 and human 4F2hc. In kind it is cell-based. Also noted: expressed in transfected cells. Particulars: summary statement of the disclosure.
For test [12], the target named is rat neutral amino acid transporter LAT1 (Rattus norvegicus, UniProt Q63016). In words: Inhibition of 14C-leucine incorporation into oocytes injected with rat LAT1 and rat 4F2hc cRNA by amino acids and similar substances. Particulars: rat LAT1/rat 4F2hc oocytes; 14C-leucine 20 μM, 2 mM unlabeled compound, choline uptake solution. The arrangement: expressed in transfected cells; host or cells: oocytes (Xenopus laevis by the cited method of Kanai and Hediger) injected with rat LAT1 cRNA and rat 4F2hc cRNA. In kind it is cell-based.

Molecules are shown by their SMILES.

T1 sequence (Q01650 whole entry): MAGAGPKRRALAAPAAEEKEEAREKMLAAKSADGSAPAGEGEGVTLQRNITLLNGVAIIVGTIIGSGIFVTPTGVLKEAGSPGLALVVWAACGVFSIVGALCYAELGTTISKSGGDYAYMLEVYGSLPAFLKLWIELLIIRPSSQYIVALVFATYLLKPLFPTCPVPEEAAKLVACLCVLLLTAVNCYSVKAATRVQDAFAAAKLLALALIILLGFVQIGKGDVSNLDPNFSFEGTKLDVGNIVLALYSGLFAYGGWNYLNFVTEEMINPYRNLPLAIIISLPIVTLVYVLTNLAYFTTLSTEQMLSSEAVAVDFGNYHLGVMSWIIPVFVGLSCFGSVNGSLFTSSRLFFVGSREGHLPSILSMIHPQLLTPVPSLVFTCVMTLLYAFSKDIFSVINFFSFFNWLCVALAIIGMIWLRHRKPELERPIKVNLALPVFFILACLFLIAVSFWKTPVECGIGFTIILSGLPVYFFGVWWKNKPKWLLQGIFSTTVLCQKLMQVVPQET
T1 sequence (as listed by the source partner): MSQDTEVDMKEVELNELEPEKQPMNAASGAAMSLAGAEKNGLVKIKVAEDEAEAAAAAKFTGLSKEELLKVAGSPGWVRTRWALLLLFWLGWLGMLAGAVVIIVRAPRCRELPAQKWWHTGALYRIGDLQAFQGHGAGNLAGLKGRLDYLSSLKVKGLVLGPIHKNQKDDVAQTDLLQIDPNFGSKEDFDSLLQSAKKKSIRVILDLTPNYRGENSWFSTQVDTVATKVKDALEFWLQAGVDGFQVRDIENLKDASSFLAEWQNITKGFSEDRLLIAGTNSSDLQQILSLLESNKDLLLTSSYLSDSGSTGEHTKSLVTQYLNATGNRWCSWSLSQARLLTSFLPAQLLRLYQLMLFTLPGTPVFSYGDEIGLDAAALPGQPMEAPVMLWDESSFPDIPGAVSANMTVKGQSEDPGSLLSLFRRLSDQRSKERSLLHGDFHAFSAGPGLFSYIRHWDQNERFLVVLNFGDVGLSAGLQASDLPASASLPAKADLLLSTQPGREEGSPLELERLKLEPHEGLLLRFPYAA
rat neutral amino acid transporter LAT1, sequence (Q63016 whole entry): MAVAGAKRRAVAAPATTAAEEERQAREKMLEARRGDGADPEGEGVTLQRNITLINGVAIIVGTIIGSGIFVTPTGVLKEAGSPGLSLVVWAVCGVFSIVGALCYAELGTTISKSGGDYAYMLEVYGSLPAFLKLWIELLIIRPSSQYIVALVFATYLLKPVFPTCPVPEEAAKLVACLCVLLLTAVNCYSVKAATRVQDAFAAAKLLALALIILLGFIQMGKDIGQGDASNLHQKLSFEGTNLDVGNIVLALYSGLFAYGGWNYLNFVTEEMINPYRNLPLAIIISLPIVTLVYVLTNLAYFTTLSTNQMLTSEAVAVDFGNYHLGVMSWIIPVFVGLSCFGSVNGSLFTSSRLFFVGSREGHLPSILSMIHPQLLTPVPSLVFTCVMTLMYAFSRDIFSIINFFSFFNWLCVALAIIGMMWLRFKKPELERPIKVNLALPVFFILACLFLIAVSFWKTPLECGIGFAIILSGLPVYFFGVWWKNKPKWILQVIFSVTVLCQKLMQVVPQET
rat neutral amino acid transporter LAT1, sequence (Q794F9 whole entry partner): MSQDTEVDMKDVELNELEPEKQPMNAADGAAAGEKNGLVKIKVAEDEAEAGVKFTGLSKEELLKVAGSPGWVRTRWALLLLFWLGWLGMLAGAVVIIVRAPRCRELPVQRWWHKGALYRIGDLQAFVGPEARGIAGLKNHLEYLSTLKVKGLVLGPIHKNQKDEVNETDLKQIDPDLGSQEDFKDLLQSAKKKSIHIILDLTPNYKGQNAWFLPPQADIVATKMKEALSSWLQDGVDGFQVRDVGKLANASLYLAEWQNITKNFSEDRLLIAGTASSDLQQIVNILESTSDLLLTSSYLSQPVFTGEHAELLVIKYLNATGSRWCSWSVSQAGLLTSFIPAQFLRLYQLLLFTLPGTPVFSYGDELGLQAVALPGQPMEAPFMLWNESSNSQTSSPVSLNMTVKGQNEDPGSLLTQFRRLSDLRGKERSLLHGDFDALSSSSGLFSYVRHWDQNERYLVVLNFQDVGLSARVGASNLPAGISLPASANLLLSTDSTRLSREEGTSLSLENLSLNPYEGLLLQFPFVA

A word on the Ki: it is a measure of affinity in units of concentration, obtained from inhibition or displacement. The low end stands for higher affinity, the high end for lower affinity. Regarding `NC1(C(=O)O)CC2CCC1C2` (stereo not shown) [BCH, 2-amino-2-norbornane-carboxylic acid], the “cell numbers (O.D. 450) compared with control group” value in [1] is “a reduction in the cell numbers was noted”. In addition, the “inhibition of incorporation of 14C-leucine by T24 cells” value in test [2] was “strongly inhibited”. For the same compound, the “inhibiting mode of leucine incorporation” value in [3] (0, 50 μM and 100 μM of BCH, double reciprocal plots) is on record as “competitive inhibition”. Moreover, the inhibition constant Ki in [3] (14C-leucine incorporation, 50 μM and 100 μM of BCH) stood at 156 µM. For the same compound, in [4], the “suppression of proliferation of T24 cells” value was “highly suppressed”. Further, in test [5], the “suppression of proliferation of Daudi cells” value was “rarely showed a suppressing effect”. In test [6], the “effect on proliferation of CCRF-SB cells” value was “weak”. For the same compound, the “effect on proliferation of P30/OHK cells” value in test [7] is recorded as “weak”. In test [8], the “suppressing effect on proliferation” value is reported as “strong suppressing effect”. Besides, in test [9], the survival effect entry is recorded as “significant survival effect”. For the same compound, in test [10], the “inhibition of incorporation of 14C-labeled leucine mediated by the human LAT1” value is “inhibited”. In addition, in test [11], the “incorporation in a cell in which human LAT1 and human 4F2hc are co-expressed” value was “confirmed”. In [12], the “inhibition of incorporation of 14C-leucine mediated by LAT1” value is “inhibited”.

Values taken from US7413895B2, “DNA encoding neutral amino acid transporter” (Japan Science and Technology Corporation, priority 1998, dated 2008).
